Earlier results as cited in US10125164B2, “Process for preparing D-arginyl-2,6-dimethyl-L-tyrosyl-L-lysyl-L-phenylalaninamide” (FLAMMA S.P.A., priority 2014, dated 2018).
Where a SMILES comes first, the peptide text is derived from it. [ ]: non-standard residue; d: D form. Dmt = Cc1cc(O)cc(C)c1C[C@H](N)C(=O)O

Columns and labels:
[1] = tested on: G93A mouse model of amyotrophic lateral sclerosis; conditions: 5 mg/kg/day i.p. starting at 30 days of age
[2] = tested on: inner mitochondrial membrane
mu-opioid receptor = mu-opioid receptor (Homo sapiens, UniProt P35372)
Chain of mu-opioid receptor (P35372 whole entry): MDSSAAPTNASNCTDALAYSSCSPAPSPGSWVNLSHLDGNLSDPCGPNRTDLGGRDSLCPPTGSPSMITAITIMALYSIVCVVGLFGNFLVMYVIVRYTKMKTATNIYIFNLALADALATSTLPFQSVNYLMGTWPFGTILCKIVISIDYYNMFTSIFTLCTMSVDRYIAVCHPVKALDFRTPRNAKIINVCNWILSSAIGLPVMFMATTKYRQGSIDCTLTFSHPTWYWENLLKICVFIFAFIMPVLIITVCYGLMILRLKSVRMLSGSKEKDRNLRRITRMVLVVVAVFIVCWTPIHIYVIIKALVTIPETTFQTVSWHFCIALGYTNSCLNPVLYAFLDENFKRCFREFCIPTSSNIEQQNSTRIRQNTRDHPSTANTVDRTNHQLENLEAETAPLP

mouse pancreatic islets = conditions: 3 mg/kg i.p. qd for 2 weeks
[3] = tested on: SH-SY5Y neuronal cell line; conditions: compound <1 nM
N2A neuronal cell line = conditions: compound <1 nM
[4] = tested on: unilateral ureteral obstruction; conditions: rats, intraperitoneal 1 and 3 mg/kg, 1 day prior to obstruction and every day thereafter for 14 days

SMILES: Cc1cc(O)cc(C)c1C[C@H](NC(=O)[C@H](N)CCCNC(=N)N)C(=O)N[C@@H](CCCCN)C(=O)N[C@@H](Cc1ccccc1)C(N)=O [D-Arginyl-2,6-dimethyl-L-tyrosyl-L-lysyl-L-phenylalaninamide] (H-[dR][Dmt]KF-NH2)
- disease onset [1]: significant delay
- antioxidant activity [2]: showed antioxidant activity
- mu-opioid receptor agonist activity (mu-opioid receptor): does not have mu-opioid receptor agonist activity
- apoptosis in pancreatic islets caused by streptozotocin (mouse pancreatic islets): prevented
- insulin reduction in pancreatic islets caused by streptozotocin (mouse pancreatic islets): prevented
- intracellular reactive oxygen species [3]: significantly reduced
- mitochondrial potential [3]: increased
- tBHP-induced apoptosis [3]: prevented
- intracellular reactive oxygen species (N2A neuronal cell line): significantly reduced
- mitochondrial potential (N2A neuronal cell line): increased
- tBHP-induced apoptosis (N2A neuronal cell line): prevented
- interstitial fibrosis [4]: significantly decreased
- macrophage infiltration [4]: significantly decreased
- tubular damage [4]: significantly decreased
